{
  "source": "patent US10813891B2",
  "about": "“Method of inhibiting chronification of pain” (priority 2011, dated 2020)",
  "key": {"CCI-ION rats [1]": {"test_system": "CCI-ION rats", "settings": "cited from earlier work"}, "CCI-SN rats [2]": {"test_system": "CCI-SN rats", "format": "in vivo, rat", "settings": "rat, in vivo", "procedure": "(§1) Male Sprague-Dawley rats (Charles River Laboratories, L'Arbresle, France), weighing 150-200 g on arrival, were used. Animals were maintained under controlled environmental conditions (22±1° C., 60% relative humidity, 12 h/12 h light/dark cycle, food and water ad libitum) starting from reception in the laboratory, for at least 1 week before any intervention or treatment and thereafter, until euthanasia.\nRats were anaesthetized as above and the common sciatic nerve was exposed. Using a dissection microscope (2× magnification), four chromic catgut (5-0) ligations were tied loosely with about 1 mm spacing, proximally to the sciatic trifurcation (Bennett and Xie, 1988). Finally, the skin and muscle were sewed using silk sutures (4-0). In sham-operated animals, the same surgery was performed, but the nerve was not ligated.\n(§2) Tapentadol (1, 3 and 10 mg/kg i.p.), reboxetine (10 mg/kg i.p.), morphine (1 and 3 mg/kg s.c.) or their vehicle (0.9% NaCl) were injected acutely 14 days after surgery, when allodynia/hyperalgesia reached a plateau in both CCI-SN and CCI-ION rats. Behavioral tests were performed at various times for up to 4 h after injection. In drug association procedure, reboxetine or saline was administered 15 min before morphine or saline.\n(§3) Subchronic treatment consisted of twice daily injections of tapentadol (10 mg/kg, i.p. at 10:00 am and 6:00 pm) or saline for 4 days starting on the 15th day after nerve ligation in both CCI-ION and CCI-SN rats. Animals were further injected with tapentadol (10 mg/kg i.p.) or saline at 10:00 am the following day (19th day post-surgery), and assessment of allodynia with von Frey filament tests (see below) was made at various times up to 4 hours after this injection. All rats were killed by decapitation 4 hours after the last injection for real-time qRT-PCR determinations of specific mRNAs in ganglia and central tissues (see below).\nBefore testing, each rat was habituated for 2 h as above, and mechanical sensitivity was then determined with a graded series of […] von Frey filaments, that produced a bending force of 6, 8, 10, 12, 15, 26, and 60 g, respectively. The stimuli were applied within the SN territory (lateral part of the hind paw sole). Each filament was tested three times on the nerve-injured side in increasing order starting with the filament producing the lowest force. As for the CCI-ION rats, the von Frey filaments were applied at least 3 seconds after the rat had returned to its initial resting state. The minimal force filament for which animals presented either a brisk paw withdrawal and/or an escape attempt in response to at least 2 out of the 3 stimulations allowed determination of the mechanical response threshold. The 60.00 g filament was chosen as the cutoff threshold to inhibit any tissue injury.\nA—Two weeks after unilateral chronic constriction injury to the sciatic nerve, pressure threshold values (as g) to trigger nocifensive responses to von Frey filaments application onto the plantar surface of ipsilateral hindpaw were determined at various times after acute injection of tapentadol (1, 3 or 10 mg/kg, i.p.) or saline. B—On day 15 (D on abscissa) after nerve ligation, rats were treated subchronically with tapentadol (10 mg/kg, i.p., twice daily, at 10:00 AM and 6:00 PM) or saline for four days. On the following day (day 19 after surgery), both tapentadol- and saline-pretreated CCI-SN rats were injected with tapentadol (10 mg/kg, i.p.; 0 on abscissa) and then subjected to von Frey filaments' test applied to ipsilateral hindpaw for determination of pressure threshold values (as g) at various times thereafter."}, "[3]": {"test_system": "mice hindpaw after incision", "settings": "mouse, in vivo; cited from earlier work"}, "CCI-ION rats [4]": {"test_system": "CCI-ION rats", "format": "in vivo, rat", "settings": "rat, in vivo", "procedure": "as §1\nRats were anaesthetized with sodium pentobarbital (50 mg/kg i.p.). Unilateral CCI-ION was performed under direct visual control using a Zeiss microscope (10-25×). Briefly, the head was fixed in a Horsley-Clarke stereotaxic frame and a midline scalp incision was made, exposing skull and nasal bone. The edge of the orbit, formed by the maxillary, frontal, lacrimal, and zygomatic bones, was dissected free. The orbital contents were then gently deflected to give access to the infraorbital nerve which was dissected free at its most rostral extent in the orbital cavity, just caudal to the infraorbital foramen. Only 5 mm of the nerve could be freed, providing the space for placement of two chromic catgut (5-0) ligations tied loosely (with about 2 mm spacing) around it. […] Finally, scalp incision was closed using silk sutures (4-0). In sham-operated rats, the ION was exposed using the same procedure, but was not ligated.\nas §2, §3\nRats were placed individually in small (35×20×15 cm) plastic cages for a 2 h habituation period. Before any stimulation session, rats freely explored the observation cage and the testing environments for 2 h. Then mechanical sensitivity was determined with a graded series of […] von Frey filaments (Bioseb, Bordeaux, France). The filaments produced a bending force of 0.40, 0.60, 1.00, 2.00, 4.00, 6.00, 8.00, 10.00 and 12.00 g, respectively. The stimuli were applied within the ION territory (vibrissae pad) three times on the nerve-injured side and then on the contralateral side for a total of 6 applications of each filament per rat, always beginning with the filament producing the lowest force. The von Frey filaments were applied at least 3 seconds after the rat had returned to its initial resting state. For each session, the complete series of von Frey filaments was tested in increasing force order. […] The latter responses represented the highest scores in the rank-ordered response scoring system initially described by Vos et al. (1994). Under our own conditions, the mechanical response threshold was determined as the minimal force filament causing at least one among these responses to at least 2 out of the 3 applications in vibrissae territory. […] To avoid nonspecific responses, only these rats were included in the study."}, "CCI-SN rats [5]": {"test_system": "CCI-SN rats", "settings": "rat, in vivo; cited from earlier work"}},
  "note": "“Also recorded” adds a separate entry of the source. Read-outs that look alike come from different tables or passages of the source.",
  "data": [
    {"smiles": "NC1CCN(O)C1=O", "note": "(single isomer, unassigned; (+)) [(+)-HA966]", "values": [
      {"measurement": "cephalic neuropathic pain, each drug alone", "setting": "CCI-ION rats [1]; each drug alone", "value": "inactive"}
    ]},
    {"smiles": "CN1CC[C@]23c4c5ccc(O)c4O[C@H]2[C@@H](O)C=C[C@H]3[C@H]1C5", "note": "[morphine]", "values": [
      {"measurement": "effect on CCI-SN-induced mechanical allodynia", "setting": "CCI-SN rats [2]", "value": "fully reversed CCI-SN-induced mechanical allodynia; also recorded: allodynia was not completely reversed"},
      {"measurement": "persistence of reversal of allodynia", "setting": "CCI-SN rats [2]", "value": "at least one hour"},
      {"measurement": "pressure threshold values, either drug alone", "setting": "CCI-SN rats [2]", "value": "only discrete increases in pressure threshold values"},
      {"measurement": "allodynia in the vibrissae territory", "setting": "CCI-ION rats [1]; rat, in vivo", "value": "inactive against allodynia in the vibrissae territory"},
      {"measurement": "cephalic neuropathic pain, each drug alone", "setting": "CCI-ION rats [1]; rat, in vivo", "value": "inactive"},
      {"measurement": "incision-induced hyperalgesia", "setting": "[3]", "value": "does not inhibit incision-induced hyperalgesia; also recorded: hyperalgesia is even maintained"},
      {"measurement": "maximum increase in pressure threshold value, as % of that in healthy intact rats", "setting": "CCI-ION rats [4]", "value": 20, "unit": "%"},
      {"measurement": "allodynia/hyperalgesia in the hindpaw", "setting": "CCI-SN rats [5]", "value": "reversed allodynia/hyperalgesia in the hindpaw"}
    ]},
    {"smiles": "CCOc1ccccc1OC(c1ccccc1)C1CNCCO1", "note": "(stereo not shown) [reboxetine]", "values": [
      {"measurement": "pressure threshold values, either drug alone", "setting": "CCI-SN rats [2]", "value": "only discrete increases in pressure threshold values"},
      {"measurement": "anti-allodynic effect alone", "setting": "CCI-ION rats [4]", "value": "completely inactive on its own"}
    ]},
    {"smiles": "NC1=N[C@H](O)[C@H]2[C@H]3O[C@]4(O)O[C@@H]([C@@H](O)[C@@]2(N1)[C@@H]4O)[C@]3(O)CO", "note": "[tetrodotoxin]", "values": [
      {"measurement": "allodynia in the vibrissae territory", "setting": "CCI-ION rats [1]; rat, in vivo", "value": "inactive against allodynia in the vibrissae territory"},
      {"measurement": "allodynia/hyperalgesia in the hindpaw", "setting": "CCI-SN rats [5]", "value": "reversed allodynia/hyperalgesia in the hindpaw"}
    ]}
  ]
}
